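Grown in 96-well plates, cells were treated for 48 hours with each compound at five concentrations. Insufficient inhibition: endpoint recorded as highest concentration tested. GI50 is the concentration that inhibits growth by half.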 The source made the active and inactive calls. Cut-off read from the data, not from the text of the source: active = GI50 up to about 1.1 µM and inactive = higher.
What was measured:
Experiment in all cases: DTP human tumour cell line panel, 48 h
A498 = system: A498
NCI-H460 = system: NCI-H460
HT-29 = system: HT-29
NCI-H23 = system: NCI-H23
HCT-116 = system: HCT-116
ACHN = system: ACHN
UACC-62 = system: UACC-62
RXF 393 = system: RXF 393
OVCAR-3 = system: OVCAR-3
OVCAR-8 = system: OVCAR-8
MDA-MB-435 = system: MDA-MB-435
NCI/ADR-RES = system: NCI/ADR-RES
MCF7 = system: MCF7
PC-3 = system: PC-3
MOLT-4 = system: MOLT-4
UACC-257 = system: UACC-257
COLO 205 = system: COLO 205
SN12C = system: SN12C
SNB-19 = system: SNB-19
M14 = system: M14

Measured: GI50

CCOc1cc(NC(C)=O)ccc1C(=O)NN1C(=O)C(Oc2ccccc2)C1c1ccccc1 (configuration not stated)
inactive: A498 45.4 µM | NCI-H460 15.3 µM | HT-29 > 100 µM | NCI-H23 > 100 µM | HCT-116 94.4 µM | ACHN 26.5 µM | UACC-62 45 µM | RXF 393 70.5 µM | OVCAR-3 > 100 µM | OVCAR-8 > 100 µM | MDA-MB-435 > 100 µM | NCI/ADR-RES > 100 µM | MCF7 15.1 µM | PC-3 > 100 µM | MOLT-4 1.77 µM | UACC-257 > 100 µM | COLO 205 71.9 µM | SN12C > 100 µM

CCOc1ccnc2c(OC)c(C)c3nc4ccccc4nc3c12
inactive: A498 > 100 µM | NCI-H460 > 100 µM | HT-29 72.8 µM | NCI-H23 > 100 µM | HCT-116 > 100 µM | ACHN > 100 µM | SNB-19 > 100 µM | RXF 393 8.39 µM | M14 > 100 µM | OVCAR-3 > 100 µM | OVCAR-8 57.4 µM | MDA-MB-435 > 100 µM | NCI/ADR-RES 71.1 µM | MCF7 26 µM | PC-3 89.3 µM | MOLT-4 82.6 µM | UACC-257 > 100 µM | COLO 205 > 100 µM | SN12C > 100 µM

CCC1=CC(OCc2ccccc2)C(CCN(Cc2ccccc2)C(=O)OCc2ccccc2)C1 (configuration not stated)
inactive: A498 16 µM | NCI-H460 15.3 µM | HT-29 17.9 µM | NCI-H23 14.9 µM | ACHN 15.3 µM | SNB-19 14.8 µM | UACC-62 10.9 µM | RXF 393 3.5 µM | M14 13.7 µM | OVCAR-3 14.2 µM | OVCAR-8 17.5 µM | MDA-MB-435 17.1 µM | NCI/ADR-RES 15.9 µM | MCF7 16.1 µM | PC-3 14.3 µM | MOLT-4 10.2 µM | UACC-257 13.9 µM | COLO 205 20.8 µM

C#CCOC(=O)C(N)CCSC (configuration not stated)
inactive: A498 > 100 µM | HT-29 > 100 µM | NCI-H23 > 100 µM | HCT-116 > 100 µM | ACHN > 100 µM | UACC-62 > 100 µM | RXF 393 > 100 µM | M14 > 100 µM | OVCAR-3 > 100 µM | OVCAR-8 > 100 µM | MDA-MB-435 > 100 µM | NCI/ADR-RES > 100 µM | MCF7 > 100 µM | PC-3 > 100 µM | MOLT-4 > 100 µM | UACC-257 > 100 µM | COLO 205 > 100 µM | SN12C > 100 µM

CC(CN(C)C)C(=O)c1ccccc1C(=O)O (configuration not stated)
inactive: A498 40.8 µM | HT-29 38.7 µM | NCI-H23 26.5 µM | HCT-116 32.1 µM | ACHN 35.6 µM | SNB-19 39.2 µM | UACC-62 20.1 µM | RXF 393 39.4 µM | M14 26.4 µM | OVCAR-3 14.7 µM | OVCAR-8 30.3 µM | MDA-MB-435 20.1 µM | NCI/ADR-RES 29.1 µM | MCF7 35.6 µM | PC-3 23.9 µM | MOLT-4 20.4 µM | COLO 205 25.4 µM | SN12C 25.9 µM

COC(=O)c1ccc2c(c1)CC1(C2)Cc2cc3c(cc2C1)CCC3
inactive: A498 > 100 µM | NCI-H460 > 100 µM | HT-29 > 100 µM | NCI-H23 > 100 µM | HCT-116 > 100 µM | ACHN > 100 µM | SNB-19 > 100 µM | RXF 393 > 100 µM | M14 > 100 µM | OVCAR-3 > 100 µM | OVCAR-8 > 100 µM | MDA-MB-435 > 100 µM | NCI/ADR-RES > 100 µM | MCF7 > 100 µM | PC-3 > 100 µM | MOLT-4 > 100 µM | UACC-257 > 100 µM

N#C[BH2-][n+]1cn(C2CC(O)C(COP(=O)(O)OC3CC(n4cnc5c(=O)[nH]c(N)nc54)OC3CO)O2)c2nc(N)[nH]c(=O)c21 (configuration not stated)
inactive: A498 > 100 µM | NCI-H460 > 100 µM | HT-29 > 100 µM | NCI-H23 > 100 µM | HCT-116 > 100 µM | ACHN > 100 µM | SNB-19 > 100 µM | UACC-62 > 100 µM | RXF 393 97.3 µM | M14 > 100 µM | OVCAR-3 > 100 µM | OVCAR-8 > 100 µM | MDA-MB-435 > 100 µM | NCI/ADR-RES > 100 µM | MCF7 39.5 µM | PC-3 66.4 µM | UACC-257 > 100 µM | COLO 205 > 100 µM | SN12C > 100 µM

Cc1ccc2c3c1O[C@H]1c4[nH]c5ccccc5c4C[C@@]4(O)[C@@H](C2)N(C)CC[C@]314
inactive: A498 17 µM | HT-29 11.5 µM | NCI-H23 18.4 µM | HCT-116 16.6 µM | ACHN 15.9 µM | SNB-19 17.9 µM | UACC-62 16.6 µM | RXF 393 10.1 µM | M14 16.2 µM | OVCAR-8 18.6 µM | MDA-MB-435 14.5 µM | NCI/ADR-RES 17.8 µM | MCF7 16 µM | PC-3 17.3 µM | MOLT-4 16.4 µM | UACC-257 13.7 µM | COLO 205 14.4 µM | SN12C 18.2 µM

N#Cc1ncn(-c2ccccc2)c1N
inactive: A498 > 100 µM | NCI-H460 > 100 µM | HT-29 > 100 µM | NCI-H23 > 100 µM | HCT-116 > 100 µM | ACHN > 100 µM | SNB-19 > 100 µM | UACC-62 > 100 µM | M14 > 100 µM | OVCAR-3 > 100 µM | OVCAR-8 > 100 µM | MDA-MB-435 > 100 µM | NCI/ADR-RES > 100 µM | MCF7 > 100 µM | PC-3 > 100 µM | MOLT-4 > 100 µM | UACC-257 > 100 µM | COLO 205 > 100 µM | SN12C > 100 µM

CCOC(=O)C1(C(=O)OCC)C[C@]23OCCC(=O)[C@H]2[C@H]2C(=O)OC(C)(C)O[C@]23C1
inactive: A498 > 100 µM | NCI-H460 > 100 µM | HT-29 > 100 µM | NCI-H23 > 100 µM | HCT-116 > 100 µM | ACHN > 100 µM | SNB-19 > 100 µM | UACC-62 > 100 µM | M14 > 100 µM | OVCAR-3 > 100 µM | OVCAR-8 > 100 µM | MDA-MB-435 > 100 µM | NCI/ADR-RES > 100 µM | MCF7 > 100 µM | PC-3 > 100 µM | MOLT-4 > 100 µM | UACC-257 > 100 µM | COLO 205 > 100 µM | SN12C > 100 µM

CC(C)(C)OC(=O)C1/C(=C/CBr)CN1C(=O)OC(C)(C)C (configuration not stated)
inactive: A498 16.4 µM | NCI-H460 16.7 µM | HT-29 23.7 µM | NCI-H23 10.5 µM | HCT-116 11.4 µM | ACHN 16.7 µM | SNB-19 17.6 µM | UACC-62 15.3 µM | M14 16.6 µM | OVCAR-3 14.7 µM | OVCAR-8 16.9 µM | MDA-MB-435 12.9 µM | NCI/ADR-RES 22.8 µM | MCF7 3.76 µM | PC-3 14.3 µM | MOLT-4 6.56 µM | UACC-257 16.3 µM | COLO 205 2.56 µM | SN12C 12.6 µM

From ChEMBL document CHEMBL1201862, “PubChem BioAssay data set” (2004)
